# Measured values: article PMC4176650 (BioMed Research International, 2014)
# Entries after “also recorded” stand apart in the source; their conditions may differ.
# Target: Jack bean urease (Canavalia ensiformis, UniProt P07374)
# Experiment: biochemical
# Details: not given
# Method: (§1) Reaction mixtures comprising 25 μL of enzyme (Jack bean and Bacillus pasteurii ureases) solution and 55 μL of buffers containing urea (2–24 mM for jack bean and Bacillus pasteurii ureases) were incubated with 5 μL of test compounds at 30°C for 4.15 min in 96-well plates. The increasing absorbance at 560 nm was measured after 10 min, using a microplate reader (Molecular Devices, USA). All reactions were performed in triplicate in a final volume of […]. The results (change in absorbance per min.) were processed by using SoftMax Pro software (Molecular Devices, USA). All the assays were performed at pH 6.8 (3 mM sodium phosphate buffer) and 7 μg of phenol red per mL as indicator [10]. Percentage inhibitions were calculated from the formula 100 − (ODtestwell/ODcontrol) × 100. Thiourea was used as the standard inhibitor of urease.
# (§2) The concentration of tested compounds that inhibited the hydrolysis of substrates (Jack bean urease and Bacillus pasteurii ureases) by 50% (IC50) was determined by monitoring the effect of various concentrations of the compounds in the assays on the inhibition values. The IC50 (inhibitor conc. that inhibits 50% activity of both enzymes) values were then calculated using the EZ-Fit Enzyme Kinetics program (Perrella Scientific Inc., Amherst, USA).
# (§3) Dissociation constant/inhibition constant (K i) were determined by the interpretation of Dixon plot. Lineweaver-Burk plot and their secondary replots using initial velocities obtained over a substrate concentration range between 2.0 and 24 mM urea for J.B. and B.P. ureases, respectively. Nonlinear regression equations were used to determine the values of K I, K m, and V max in the Lineweaver-Burk plot and Dixon plots. The K i values dissociation constant/inhibition constant of J.B. urease-inhibitor or B.P. urease-inhibitor complex into free J.B. urease or B.P. urease and inhibitor was determined graphically by Dixon plot and Lineweaver-Burk plots.
# Jack bean urease, sequence (P07374 whole entry, looked up): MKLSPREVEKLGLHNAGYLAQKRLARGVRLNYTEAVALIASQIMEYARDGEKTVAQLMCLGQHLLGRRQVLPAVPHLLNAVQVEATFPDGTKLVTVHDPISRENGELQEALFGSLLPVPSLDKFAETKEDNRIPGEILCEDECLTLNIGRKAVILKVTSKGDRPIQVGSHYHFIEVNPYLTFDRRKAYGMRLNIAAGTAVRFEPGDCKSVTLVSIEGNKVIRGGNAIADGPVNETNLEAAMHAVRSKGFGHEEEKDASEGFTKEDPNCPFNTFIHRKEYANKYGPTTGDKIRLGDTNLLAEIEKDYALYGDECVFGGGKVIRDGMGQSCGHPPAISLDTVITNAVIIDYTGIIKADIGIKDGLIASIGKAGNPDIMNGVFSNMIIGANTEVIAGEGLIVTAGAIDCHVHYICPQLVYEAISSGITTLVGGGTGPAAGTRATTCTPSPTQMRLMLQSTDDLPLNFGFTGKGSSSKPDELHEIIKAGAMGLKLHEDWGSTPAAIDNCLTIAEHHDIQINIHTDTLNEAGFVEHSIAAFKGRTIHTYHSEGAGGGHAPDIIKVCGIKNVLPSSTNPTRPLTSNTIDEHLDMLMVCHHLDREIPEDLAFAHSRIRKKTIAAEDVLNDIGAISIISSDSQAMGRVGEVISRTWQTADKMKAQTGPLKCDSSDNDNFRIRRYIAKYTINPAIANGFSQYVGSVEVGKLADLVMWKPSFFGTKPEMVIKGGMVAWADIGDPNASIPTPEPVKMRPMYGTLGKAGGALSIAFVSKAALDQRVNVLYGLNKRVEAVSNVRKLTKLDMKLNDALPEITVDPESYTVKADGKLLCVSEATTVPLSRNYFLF
row,SMILES,Ki
1,COc1cccc(C(c2c(O)c3ccccc3oc2=O)c2c(O)c3ccccc3oc2=O)c1 [compound 1],19.3 ± 0.1 µM
2,O=c1oc2ccccc2c(O)c1C(/C=C/c1ccccc1)c1c(O)c2ccccc2oc1=O [compound 8],21.5 µM
3,CCCCC(c1c(O)c2ccccc2oc1=O)c1c(O)c2ccccc2oc1=O [compound 6],75 ± 0.1 µM
4,O=c1oc2ccccc2c(O)c1C(c1c(O)c2ccccc2oc1=O)c1c[nH]c2ccccc12 [compound 9],62.9 ± 0.5 µM
5,O=c1oc2ccccc2c(O)c1C(c1ccncc1)c1c(O)c2ccccc2oc1=O [compound 2],71 ± 0.3 µM

# Same assay, conditions: Urease (JB)
row,SMILES,Type of inhibition
1,COc1cccc(C(c2c(O)c3ccccc3oc2=O)c2c(O)c3ccccc3oc2=O)c1 [compound 1],Competitive
2,O=c1oc2ccccc2c(O)c1C(/C=C/c1ccccc1)c1c(O)c2ccccc2oc1=O [compound 8],Competitive
3,CCCCC(c1c(O)c2ccccc2oc1=O)c1c(O)c2ccccc2oc1=O [compound 6],Competitive
4,O=c1oc2ccccc2c(O)c1C(c1c(O)c2ccccc2oc1=O)c1c[nH]c2ccccc12 [compound 9],Competitive
5,O=c1oc2ccccc2c(O)c1C(c1ccncc1)c1c(O)c2ccccc2oc1=O [compound 2],Competitive

# Same assay, conditions: Urease (JB); Km without inhibitor 2.5 mM
row,SMILES,Kmapp
1,COc1cccc(C(c2c(O)c3ccccc3oc2=O)c2c(O)c3ccccc3oc2=O)c1 [compound 1],5.6 mM
2,O=c1oc2ccccc2c(O)c1C(/C=C/c1ccccc1)c1c(O)c2ccccc2oc1=O [compound 8],7.5 mM
3,CCCCC(c1c(O)c2ccccc2oc1=O)c1c(O)c2ccccc2oc1=O [compound 6],9.5 mM
4,O=c1oc2ccccc2c(O)c1C(c1c(O)c2ccccc2oc1=O)c1c[nH]c2ccccc12 [compound 9],11.6 mM
5,O=c1oc2ccccc2c(O)c1C(c1ccncc1)c1c(O)c2ccccc2oc1=O [compound 2],7.7 mM

# Same assay, conditions: Urease (JB); Vmax without inhibitor 105
row,SMILES,Vmaxapp
1,COc1cccc(C(c2c(O)c3ccccc3oc2=O)c2c(O)c3ccccc3oc2=O)c1 [compound 1],109
2,O=c1oc2ccccc2c(O)c1C(/C=C/c1ccccc1)c1c(O)c2ccccc2oc1=O [compound 8],104
3,CCCCC(c1c(O)c2ccccc2oc1=O)c1c(O)c2ccccc2oc1=O [compound 6],106
4,O=c1oc2ccccc2c(O)c1C(c1c(O)c2ccccc2oc1=O)c1c[nH]c2ccccc12 [compound 9],108
5,O=c1oc2ccccc2c(O)c1C(c1ccncc1)c1c(O)c2ccccc2oc1=O [compound 2],106

# Target: Bacillus pasteurii urease (Sporosarcina pasteurii, UniProt P41020)
# Sequence (P41021 whole entry): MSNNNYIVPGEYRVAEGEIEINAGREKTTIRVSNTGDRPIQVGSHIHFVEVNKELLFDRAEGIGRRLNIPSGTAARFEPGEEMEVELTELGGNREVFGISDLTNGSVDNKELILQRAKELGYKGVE
# Sequence (P41022 whole entry, further chain): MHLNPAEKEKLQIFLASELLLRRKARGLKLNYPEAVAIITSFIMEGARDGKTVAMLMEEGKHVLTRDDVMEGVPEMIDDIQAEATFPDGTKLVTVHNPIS
# Sequence (P41020 whole entry): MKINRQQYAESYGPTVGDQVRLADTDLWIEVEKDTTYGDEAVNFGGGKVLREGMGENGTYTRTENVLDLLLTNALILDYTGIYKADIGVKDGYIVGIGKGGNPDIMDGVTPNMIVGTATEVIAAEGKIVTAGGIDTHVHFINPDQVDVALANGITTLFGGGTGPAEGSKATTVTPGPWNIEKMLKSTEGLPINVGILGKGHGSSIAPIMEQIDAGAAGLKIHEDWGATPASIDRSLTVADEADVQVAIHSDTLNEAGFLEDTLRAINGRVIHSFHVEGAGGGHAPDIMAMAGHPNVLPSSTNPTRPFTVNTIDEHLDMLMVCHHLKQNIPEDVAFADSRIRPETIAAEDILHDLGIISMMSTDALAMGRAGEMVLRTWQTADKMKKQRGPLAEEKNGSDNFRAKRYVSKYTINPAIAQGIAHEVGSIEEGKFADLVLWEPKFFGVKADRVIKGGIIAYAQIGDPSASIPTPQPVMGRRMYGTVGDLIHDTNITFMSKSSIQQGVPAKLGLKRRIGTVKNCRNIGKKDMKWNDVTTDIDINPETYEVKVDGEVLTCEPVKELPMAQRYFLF
# Experiment: Urease assay and inhibition kinetics, Bacillus pasteurii urease
# Assay type: biochemical
# Parameters: Vmaxapp: unit not given here
# Details: Urease (BP)
# Method: as §1, §2, §3
row,SMILES,Type of inhibition
1,COc1cccc(C(c2c(O)c3ccccc3oc2=O)c2c(O)c3ccccc3oc2=O)c1 [compound 1],competitively; also recorded: Competitive
2,O=c1oc2ccccc2c(O)c1C(/C=C/c1ccccc1)c1c(O)c2ccccc2oc1=O [compound 8],competitively; also recorded: Competitive
3,CCCCC(c1c(O)c2ccccc2oc1=O)c1c(O)c2ccccc2oc1=O [compound 6],competitively; also recorded: Competitive
4,O=c1oc2ccccc2c(O)c1C(c1c(O)c2ccccc2oc1=O)c1c[nH]c2ccccc12 [compound 9],Uncompetitive
5,O=c1oc2ccccc2c(O)c1C(c1ccncc1)c1c(O)c2ccccc2oc1=O [compound 2],Noncompetitive

# Same assay, conditions: Urease (BP); Dixon plot and secondary Lineweaver-Burk plot; pH 6.8, 30°C; read-out: Ki (µM) ± SEM
row,SMILES,Ki
1,COc1cccc(C(c2c(O)c3ccccc3oc2=O)c2c(O)c3ccccc3oc2=O)c1 [compound 1],15.5 ± 0.2 µM
2,O=c1oc2ccccc2c(O)c1C(/C=C/c1ccccc1)c1c(O)c2ccccc2oc1=O [compound 8],19 ± 0.1 µM
3,CCCCC(c1c(O)c2ccccc2oc1=O)c1c(O)c2ccccc2oc1=O [compound 6],27.5 µM
4,O=c1oc2ccccc2c(O)c1C(c1c(O)c2ccccc2oc1=O)c1c[nH]c2ccccc12 [compound 9],59.5 ± 0.2 µM
5,O=c1oc2ccccc2c(O)c1C(c1ccncc1)c1c(O)c2ccccc2oc1=O [compound 2],51.3 ± 0.4 µM

# Same assay, conditions: Urease (BP); Km without inhibitor 5.1 mM
row,SMILES,Kmapp
1,COc1cccc(C(c2c(O)c3ccccc3oc2=O)c2c(O)c3ccccc3oc2=O)c1 [compound 1],11.3 mM
2,O=c1oc2ccccc2c(O)c1C(/C=C/c1ccccc1)c1c(O)c2ccccc2oc1=O [compound 8],7.7 mM
3,CCCCC(c1c(O)c2ccccc2oc1=O)c1c(O)c2ccccc2oc1=O [compound 6],13.0 mM
4,O=c1oc2ccccc2c(O)c1C(c1c(O)c2ccccc2oc1=O)c1c[nH]c2ccccc12 [compound 9],3.2 mM
5,O=c1oc2ccccc2c(O)c1C(c1ccncc1)c1c(O)c2ccccc2oc1=O [compound 2],5.2 mM

# Same assay, conditions: Urease (BP); Vmax without inhibitor 160
row,SMILES,Vmaxapp
1,COc1cccc(C(c2c(O)c3ccccc3oc2=O)c2c(O)c3ccccc3oc2=O)c1 [compound 1],159.3
2,O=c1oc2ccccc2c(O)c1C(/C=C/c1ccccc1)c1c(O)c2ccccc2oc1=O [compound 8],161.7
3,CCCCC(c1c(O)c2ccccc2oc1=O)c1c(O)c2ccccc2oc1=O [compound 6],159.2
4,O=c1oc2ccccc2c(O)c1C(c1c(O)c2ccccc2oc1=O)c1c[nH]c2ccccc12 [compound 9],97.2
5,O=c1oc2ccccc2c(O)c1C(c1ccncc1)c1c(O)c2ccccc2oc1=O [compound 2],98.0

# Test system: Lemna aequinoctialis Welv.
# Experiment: Lemna phytotoxicity assay
# Details: conc. of compound 10 μg/mL; seven days
# Method: The assay was performed according to the modified protocol of Bremner. […] Sterilized conical flasks were inoculated with compounds with desired concentrations prepared from the stock solution and allowed to evaporate overnight. Each flask was inoculated with 20 mL of sterilized E-medium and ten Lemna aequinoctialis Welv. each containing a rosette of three fronds. Other flasks were supplemented with methanol serving as negative control and reference inhibitor, that is, phosphoroamide (a urease inhibitor already in commercial use) serving as positive control. The treatments were replicated three times and the flasks incubated at 30°C Fisons Fi-Totron 600 H growth cabinet for seven days, 9000 lux light intensity, 56 ± 10 rh (relative humidity), and 12 h day length. Growth of Lemna aequinocitalis in compound containing flask was determined by counting the number of fronds per dose and growth inhibition calculated with reference to negative control.
row,SMILES,Lemna Welv. phytotoxicity (growth inhibition)
1,COc1cccc(C(c2c(O)c3ccccc3oc2=O)c2c(O)c3ccccc3oc2=O)c1 [compound 1],9.9
2,O=c1oc2ccccc2c(O)c1C(/C=C/c1ccccc1)c1c(O)c2ccccc2oc1=O [compound 8],13.00
3,CCCCC(c1c(O)c2ccccc2oc1=O)c1c(O)c2ccccc2oc1=O [compound 6],10.60
4,O=c1oc2ccccc2c(O)c1C(c1c(O)c2ccccc2oc1=O)c1c[nH]c2ccccc12 [compound 9],41.66
5,O=c1oc2ccccc2c(O)c1C(c1ccncc1)c1c(O)c2ccccc2oc1=O [compound 2],6.5

# Same assay, conditions: conc. of compound 100 μg/mL; seven days
row,SMILES,Lemna Welv. phytotoxicity (growth inhibition)
1,COc1cccc(C(c2c(O)c3ccccc3oc2=O)c2c(O)c3ccccc3oc2=O)c1 [compound 1],60.3
2,O=c1oc2ccccc2c(O)c1C(/C=C/c1ccccc1)c1c(O)c2ccccc2oc1=O [compound 8],22.99
3,CCCCC(c1c(O)c2ccccc2oc1=O)c1c(O)c2ccccc2oc1=O [compound 6],42.50
4,O=c1oc2ccccc2c(O)c1C(c1c(O)c2ccccc2oc1=O)c1c[nH]c2ccccc12 [compound 9],50.00
5,O=c1oc2ccccc2c(O)c1C(c1ccncc1)c1c(O)c2ccccc2oc1=O [compound 2],33

# Same assay, conditions: conc. of compound 1000 μg/mL; seven days
row,SMILES,Lemna Welv. phytotoxicity (growth inhibition)
1,COc1cccc(C(c2c(O)c3ccccc3oc2=O)c2c(O)c3ccccc3oc2=O)c1 [compound 1],80
2,O=c1oc2ccccc2c(O)c1C(/C=C/c1ccccc1)c1c(O)c2ccccc2oc1=O [compound 8],70.0
3,CCCCC(c1c(O)c2ccccc2oc1=O)c1c(O)c2ccccc2oc1=O [compound 6],69.6
4,O=c1oc2ccccc2c(O)c1C(c1ccncc1)c1c(O)c2ccccc2oc1=O [compound 2],52.7

# Test system: not listed separately
# Experiment: Viability of human neutrophils (WST-1)
# Assay type: cell-based
# Details: isolated human neutrophils; human neutrophils 1 × 10^7 cells/mL; conc. 200 µg/mL
# Method: Heparinized fresh venous blood was drawn from healthy volunteers in a local blood bank and the neutrophils were isolated by developed method of McLaughlin et al.. 45 The whole blood was mixed with Ficoll-Paque (Pharmacia Biotech Amersham, Uppsala). After sedimentation the unwanted red blood cells (RBCs) were layered as a buffy coat on the cushion of Ficoll (3.0 mL). It was then centrifuged for 30 min. at 1500 rpm, and supernatant was discarded. Further treated with hypotonic ammonium chloride solution (0.83%) to lyse RBCs. The preparation was then centrifuged and the neutrophils were washed with Modified Hank's Solution (MHS) and resuspended at a concentration of 1 × 10^7 cells/mL.
# Isolated human neutrophils (1 × 10^7 cells/mL) were incubated first with test compounds for 30 min., and then after the addition of 0.25 mM WST-1 (Dojindo Laboratories Kumamoto, Japan) in water bath shaker at 37°C [18, 19]. After 3 hrs incubation, change in the absorbance was measured at 450 nm in 96-well plate by using microplate reader Spectra MAX 340 (Molecular Devices, CA, USA). The OD is the mean of the five experimental replicates. The percentage (%) cell viability was calculated by using the following formula: (1) Percentage (%) viability of cells =[…].
row,SMILES,viability at 200 µg/mL
1,COc1cccc(C(c2c(O)c3ccccc3oc2=O)c2c(O)c3ccccc3oc2=O)c1 [compound 1],67.5 ± 3.1%
2,O=c1oc2ccccc2c(O)c1C(/C=C/c1ccccc1)c1c(O)c2ccccc2oc1=O [compound 8],100 ± 5.2%
3,CCCCC(c1c(O)c2ccccc2oc1=O)c1c(O)c2ccccc2oc1=O [compound 6],45.5 ± 4%
4,O=c1oc2ccccc2c(O)c1C(c1c(O)c2ccccc2oc1=O)c1c[nH]c2ccccc12 [compound 9],100 ± 5.2%
5,O=c1oc2ccccc2c(O)c1C(c1ccncc1)c1c(O)c2ccccc2oc1=O [compound 2],85.1 ± 2.5%
